Data taken from ChEMBL document CHEMBL4507283, “Data for DCP probe BI-1935” (2021).

How the values were obtained:
[1] = target: Sigma non-opioid intracellular receptor 1 (Homo sapiens, UniProt Q99720); assay: GPCRScan assay: inhibition of Sigma 1; design: radioligand conc. used [nm] 4.0 – 5.0, parental cells HEKT
[2] = target: Mitogen-activated protein kinase kinase kinase 10 (Homo sapiens) (UniProt Q02779); settings: Compound concentration 1000.0 nM
[3] = target: Cyclin-dependent kinase 16 (Homo sapiens) (UniProt Q00536); settings: Compound concentration 1000.0 nM
[4] = target: Sodium-dependent serotonin transporter (Homo sapiens) (UniProt P31645); settings: Compound concentration 10.0 uM
[5] = target: Tyrosine-protein kinase Tec (Homo sapiens) (UniProt P42680); settings: Compound concentration 1000.0 nM
[6] = target: Tyrosine-protein kinase Fer (Homo sapiens) (UniProt P16591); settings: Compound concentration 1000.0 nM
[7] = target: Atypical kinase COQ8B, mitochondrial (Homo sapiens) (UniProt Q96D53); settings: Compound concentration 1000.0 nM
[8] = target: Tyrosine-protein kinase ABL1 (Homo sapiens) (UniProt P00519); settings: Compound concentration 1000.0 nM
[9] = target: Serine/threonine-protein kinase PLK2 (Homo sapiens) (UniProt Q9NYY3); settings: Compound concentration 1000.0 nM
[10] = target: Angiopoietin-1 receptor (Homo sapiens) (UniProt Q02763); settings: Compound concentration 1000.0 nM
[11] = target: Proto-oncogene tyrosine-protein kinase receptor Ret (Homo sapiens) (UniProt P07949); settings: Compound concentration 1000.0 nM
[12] = target: Glutamate receptor ionotropic, NMDA 1 (Rattus norvegicus) (UniProt P35439); assay: GLUTAMAT/R Eurofins-Panlabs selectivity data (BI); settings: Compound concentration 10.0 uM
[13] = target: Casein kinase I isoform alpha (Homo sapiens) (UniProt P48729); settings: Compound concentration 1000.0 nM
[14] = target: Receptor-interacting serine/threonine-protein kinase 4 (Homo sapiens) (UniProt P57078); settings: Compound concentration 1000.0 nM
[15] = target: Casein kinase I isoform gamma-1 (Homo sapiens) (UniProt Q9HCP0); settings: Compound concentration 1000.0 nM
[16] = target: 5-hydroxytryptamine receptor 1E (Homo sapiens) (UniProt P28566); settings: Compound concentration 10.0 uM
[17] = target: MAP/microtubule affinity-regulating kinase 3 (Homo sapiens) (UniProt P27448); settings: Compound concentration 1000.0 nM
[18] = target: Macrophage colony-stimulating factor 1 receptor (Homo sapiens) (UniProt P07333); settings: Compound concentration 1000.0 nM
[19] = target: Phosphatidylinositol 3-kinase catalytic subunit type 3 (Homo sapiens) (UniProt Q8NEB9); settings: Compound concentration 1000.0 nM
[20] = target: RAF proto-oncogene serine/threonine-protein kinase (Homo sapiens) (UniProt P04049); settings: Compound concentration 1000.0 nM
[21] = target: 5-hydroxytryptamine receptor 4 (Cavia porcellus) (UniProt O70528); assay: 5HT4/GPIG Eurofins-Panlabs selectivity data (BI); settings: Compound concentration 10.0 uM
[22] = target: Serine/threonine-protein kinase 35 (Homo sapiens) (UniProt Q8TDR2); settings: Compound concentration 1000.0 nM
[23] = target: Cyclin-dependent kinase-like 5 (Homo sapiens) (UniProt O76039); settings: Compound concentration 1000.0 nM
[24] = target: Mitogen-activated protein kinase kinase kinase kinase 4 (Homo sapiens) (UniProt O95819); settings: Compound concentration 1000.0 nM
[25] = target: RAC-beta serine/threonine-protein kinase (Homo sapiens) (UniProt P31751); settings: Compound concentration 1000.0 nM
[26] = target: Serine/threonine-protein kinase 3 (Homo sapiens) (UniProt Q13188); settings: Compound concentration 1000.0 nM
[27] = target: Cathepsin G (Homo sapiens) (UniProt P08311); assay: PEPCATHEPSG Eurofins-Panlabs selectivity data (BI); settings: Compound concentration 10.0 uM
[28] = target: Serine/threonine-protein kinase STK11 (Homo sapiens) (UniProt Q15831); settings: Compound concentration 1000.0 nM
[29] = target: Cyclin-dependent kinase-like 2 (Homo sapiens) (UniProt Q92772); settings: Compound concentration 1000.0 nM
[30] = target: Epithelial discoidin domain-containing receptor 1 (Homo sapiens) (UniProt Q08345); settings: Compound concentration 1000.0 nM
[31] = target: T1, Sodium-dependent dopamine transporter (Homo sapiens, UniProt Q01959); assay: DATRANS/H Eurofins-Panlabs selectivity data (BI); settings: Compound concentration 10.0 uM
[32] = tested on: Phosphatidylinositol 4,5-bisphosphate 3-kinase catalytic subunit alpha isoform (Homo sapiens), P42336 [E545A]; settings: Compound concentration 1000.0 nM
[33] = target: Cyclin-dependent kinase 11A (Homo sapiens) (UniProt Q9UQ88); settings: Compound concentration 1000.0 nM
[34] = target: Amine oxidase [flavin-containing] A (MAO-A) (Homo sapiens, UniProt P21397); assay: MAOA Eurofins-Panlabs selectivity data (BI); design: mode of action inhibitor; settings: compound concentration 10 uM, read-out: % Ctrl
[35] = target: Macrophage colony-stimulating factor 1 receptor (Homo sapiens) (UniProt P07333); settings: Compound concentration 1000.0 nM; remark: listed apart in the source
[36] = target: Glycogen synthase kinase-3 alpha (Homo sapiens) (UniProt P49840); settings: Compound concentration 1000.0 nM
[37] = target: Serine/threonine-protein kinase SIK1 (Homo sapiens) (UniProt P57059); settings: Compound concentration 1000.0 nM
[38] = target: T1, Sodium-dependent dopamine transporter; settings: Compound concentration 10.0 uM
[39] = target: Cyclin-dependent kinase 18 (Homo sapiens) (UniProt Q07002); settings: Compound concentration 1000.0 nM
[40] = target: Endothelin-converting enzyme 1 (Homo sapiens) (UniProt P42892); assay: ECE-1 (HU) Eurofins-Panlabs selectivity data (BI); settings: Compound concentration 10.0 uM
[41] = target: Bone morphogenetic protein receptor type-1A (Homo sapiens) (UniProt P36894); settings: Compound concentration 1000.0 nM
[42] = target: Serine/threonine-protein kinase Nek9 (Homo sapiens) (UniProt Q8TD19); settings: Compound concentration 1000.0 nM
[43] = target: Fibroblast growth factor receptor 1 (Homo sapiens) (UniProt P11362); settings: Compound concentration 1000.0 nM
[44] = target: Myosin-IIIa (Homo sapiens) (UniProt Q8NEV4); settings: Compound concentration 1000.0 nM
[45] = target: Muscle, skeletal receptor tyrosine-protein kinase (Homo sapiens) (UniProt O15146); settings: Compound concentration 1000.0 nM

Sequence of Macrophage colony-stimulating factor 1 receptor (Homo sapiens) (P07333 whole entry): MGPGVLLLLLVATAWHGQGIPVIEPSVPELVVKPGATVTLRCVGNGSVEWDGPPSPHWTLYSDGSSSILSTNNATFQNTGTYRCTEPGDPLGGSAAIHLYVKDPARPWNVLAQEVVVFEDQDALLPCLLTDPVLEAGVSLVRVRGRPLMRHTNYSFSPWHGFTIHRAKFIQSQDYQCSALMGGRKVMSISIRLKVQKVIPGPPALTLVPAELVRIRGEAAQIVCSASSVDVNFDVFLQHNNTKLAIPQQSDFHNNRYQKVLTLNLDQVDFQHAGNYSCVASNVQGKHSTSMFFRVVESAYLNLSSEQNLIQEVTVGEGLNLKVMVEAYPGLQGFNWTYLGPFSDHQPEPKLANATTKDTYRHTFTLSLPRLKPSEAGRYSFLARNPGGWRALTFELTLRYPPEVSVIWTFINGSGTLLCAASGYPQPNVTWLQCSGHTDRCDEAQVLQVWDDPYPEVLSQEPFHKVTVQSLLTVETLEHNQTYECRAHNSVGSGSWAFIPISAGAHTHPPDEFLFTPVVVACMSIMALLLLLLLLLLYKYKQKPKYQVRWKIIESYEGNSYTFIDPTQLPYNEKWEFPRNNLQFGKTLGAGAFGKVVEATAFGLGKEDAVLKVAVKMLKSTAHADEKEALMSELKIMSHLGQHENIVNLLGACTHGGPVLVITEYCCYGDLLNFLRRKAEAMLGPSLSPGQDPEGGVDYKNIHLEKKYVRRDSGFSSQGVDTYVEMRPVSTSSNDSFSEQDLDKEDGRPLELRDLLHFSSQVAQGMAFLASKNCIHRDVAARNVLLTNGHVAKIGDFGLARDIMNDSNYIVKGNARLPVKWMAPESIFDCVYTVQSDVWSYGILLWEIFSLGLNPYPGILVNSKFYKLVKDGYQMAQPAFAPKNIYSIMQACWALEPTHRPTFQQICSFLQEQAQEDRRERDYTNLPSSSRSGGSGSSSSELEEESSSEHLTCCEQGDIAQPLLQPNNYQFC
T1 sequence (Q01959 whole entry, canonical isoform): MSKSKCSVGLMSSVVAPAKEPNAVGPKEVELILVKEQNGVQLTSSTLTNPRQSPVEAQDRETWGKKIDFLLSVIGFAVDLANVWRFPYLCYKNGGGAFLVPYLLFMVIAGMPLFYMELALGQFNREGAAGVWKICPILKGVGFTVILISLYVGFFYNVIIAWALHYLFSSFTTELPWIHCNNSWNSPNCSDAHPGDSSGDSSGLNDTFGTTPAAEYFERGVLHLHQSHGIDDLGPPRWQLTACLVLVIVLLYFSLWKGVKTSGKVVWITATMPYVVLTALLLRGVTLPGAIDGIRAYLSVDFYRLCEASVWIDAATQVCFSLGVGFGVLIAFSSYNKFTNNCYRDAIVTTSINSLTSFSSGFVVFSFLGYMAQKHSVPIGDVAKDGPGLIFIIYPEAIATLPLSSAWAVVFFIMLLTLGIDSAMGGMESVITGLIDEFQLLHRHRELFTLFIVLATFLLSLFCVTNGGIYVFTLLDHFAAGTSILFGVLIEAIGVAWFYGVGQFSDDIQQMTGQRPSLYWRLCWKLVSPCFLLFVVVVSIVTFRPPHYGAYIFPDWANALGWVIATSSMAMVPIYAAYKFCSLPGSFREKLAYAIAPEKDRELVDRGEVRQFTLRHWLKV
Sequence of Myosin-IIIa (Homo sapiens) (Q8NEV4 whole entry): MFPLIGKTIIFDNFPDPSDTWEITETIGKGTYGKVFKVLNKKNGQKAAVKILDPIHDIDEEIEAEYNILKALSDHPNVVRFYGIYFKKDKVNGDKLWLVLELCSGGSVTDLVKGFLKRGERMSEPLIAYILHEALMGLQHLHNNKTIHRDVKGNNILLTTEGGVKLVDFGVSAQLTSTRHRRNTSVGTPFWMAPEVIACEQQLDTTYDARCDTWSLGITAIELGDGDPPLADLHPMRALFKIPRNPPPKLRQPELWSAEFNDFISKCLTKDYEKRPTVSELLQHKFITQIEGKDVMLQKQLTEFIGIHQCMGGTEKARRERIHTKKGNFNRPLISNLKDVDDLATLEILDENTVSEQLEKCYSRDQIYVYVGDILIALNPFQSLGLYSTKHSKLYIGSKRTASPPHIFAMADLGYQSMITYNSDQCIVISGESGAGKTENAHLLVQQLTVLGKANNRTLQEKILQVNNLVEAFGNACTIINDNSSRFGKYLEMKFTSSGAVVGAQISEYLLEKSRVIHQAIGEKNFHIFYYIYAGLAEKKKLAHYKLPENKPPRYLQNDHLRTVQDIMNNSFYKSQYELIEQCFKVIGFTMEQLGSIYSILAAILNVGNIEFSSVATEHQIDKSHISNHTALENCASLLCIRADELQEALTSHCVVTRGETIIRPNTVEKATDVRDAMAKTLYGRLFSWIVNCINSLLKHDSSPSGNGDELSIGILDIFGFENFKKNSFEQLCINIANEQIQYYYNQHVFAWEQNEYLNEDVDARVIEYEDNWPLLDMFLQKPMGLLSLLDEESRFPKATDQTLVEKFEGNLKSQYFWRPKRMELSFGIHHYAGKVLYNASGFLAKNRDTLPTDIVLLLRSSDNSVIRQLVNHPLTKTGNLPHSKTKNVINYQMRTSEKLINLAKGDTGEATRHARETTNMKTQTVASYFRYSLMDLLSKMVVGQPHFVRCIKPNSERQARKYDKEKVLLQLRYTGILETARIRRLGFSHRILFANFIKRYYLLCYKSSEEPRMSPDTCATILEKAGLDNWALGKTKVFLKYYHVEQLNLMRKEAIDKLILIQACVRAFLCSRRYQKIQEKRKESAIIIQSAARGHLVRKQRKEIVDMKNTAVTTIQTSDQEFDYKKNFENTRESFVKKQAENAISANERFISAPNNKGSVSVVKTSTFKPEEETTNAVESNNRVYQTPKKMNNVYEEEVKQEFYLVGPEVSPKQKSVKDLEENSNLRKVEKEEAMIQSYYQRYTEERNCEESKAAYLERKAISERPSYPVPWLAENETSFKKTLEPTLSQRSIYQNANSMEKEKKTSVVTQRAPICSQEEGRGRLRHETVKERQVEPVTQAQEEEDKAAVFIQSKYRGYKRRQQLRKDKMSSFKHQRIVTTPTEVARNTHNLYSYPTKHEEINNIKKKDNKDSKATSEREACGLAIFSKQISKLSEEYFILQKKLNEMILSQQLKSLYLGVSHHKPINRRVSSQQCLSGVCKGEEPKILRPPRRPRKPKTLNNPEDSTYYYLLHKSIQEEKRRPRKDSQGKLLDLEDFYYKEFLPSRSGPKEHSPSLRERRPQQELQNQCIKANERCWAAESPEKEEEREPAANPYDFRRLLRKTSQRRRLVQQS
Sequence of Endothelin-converting enzyme 1 (Homo sapiens) (P42892 whole entry): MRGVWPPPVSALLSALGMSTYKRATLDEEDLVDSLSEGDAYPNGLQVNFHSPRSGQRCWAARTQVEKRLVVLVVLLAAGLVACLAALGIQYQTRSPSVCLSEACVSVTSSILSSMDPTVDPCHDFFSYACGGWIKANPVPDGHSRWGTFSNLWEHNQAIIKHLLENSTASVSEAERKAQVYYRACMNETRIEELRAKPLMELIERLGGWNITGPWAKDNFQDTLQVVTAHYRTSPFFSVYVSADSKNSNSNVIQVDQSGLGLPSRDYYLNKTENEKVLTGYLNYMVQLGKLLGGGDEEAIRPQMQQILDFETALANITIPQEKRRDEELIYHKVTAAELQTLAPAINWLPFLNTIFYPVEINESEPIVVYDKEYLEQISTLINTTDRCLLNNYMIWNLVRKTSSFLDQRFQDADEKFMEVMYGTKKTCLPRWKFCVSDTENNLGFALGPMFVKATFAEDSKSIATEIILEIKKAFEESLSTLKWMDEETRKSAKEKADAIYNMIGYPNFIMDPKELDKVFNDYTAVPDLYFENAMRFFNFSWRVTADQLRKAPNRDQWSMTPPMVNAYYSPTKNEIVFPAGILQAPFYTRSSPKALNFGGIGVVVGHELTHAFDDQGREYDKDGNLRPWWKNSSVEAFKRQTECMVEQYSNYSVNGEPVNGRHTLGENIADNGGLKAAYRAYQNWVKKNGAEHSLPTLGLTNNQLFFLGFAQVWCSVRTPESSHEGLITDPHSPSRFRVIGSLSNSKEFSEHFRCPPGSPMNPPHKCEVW
Sequence of Cyclin-dependent kinase 18 (Homo sapiens) (Q07002 whole entry): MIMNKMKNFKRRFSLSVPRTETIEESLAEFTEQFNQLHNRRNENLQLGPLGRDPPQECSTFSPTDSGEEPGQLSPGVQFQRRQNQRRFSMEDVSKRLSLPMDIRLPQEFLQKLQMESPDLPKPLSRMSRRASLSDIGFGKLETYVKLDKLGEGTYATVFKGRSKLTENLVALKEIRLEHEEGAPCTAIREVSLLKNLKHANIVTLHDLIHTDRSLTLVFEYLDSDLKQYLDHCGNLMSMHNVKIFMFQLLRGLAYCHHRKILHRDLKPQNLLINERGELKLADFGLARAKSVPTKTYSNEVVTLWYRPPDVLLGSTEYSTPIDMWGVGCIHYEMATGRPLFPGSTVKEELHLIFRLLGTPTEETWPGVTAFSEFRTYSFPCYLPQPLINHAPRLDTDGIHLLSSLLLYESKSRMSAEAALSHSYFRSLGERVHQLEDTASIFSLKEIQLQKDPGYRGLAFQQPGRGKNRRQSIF
Sequence of Cyclin-dependent kinase 16 (Homo sapiens) (Q00536 whole entry): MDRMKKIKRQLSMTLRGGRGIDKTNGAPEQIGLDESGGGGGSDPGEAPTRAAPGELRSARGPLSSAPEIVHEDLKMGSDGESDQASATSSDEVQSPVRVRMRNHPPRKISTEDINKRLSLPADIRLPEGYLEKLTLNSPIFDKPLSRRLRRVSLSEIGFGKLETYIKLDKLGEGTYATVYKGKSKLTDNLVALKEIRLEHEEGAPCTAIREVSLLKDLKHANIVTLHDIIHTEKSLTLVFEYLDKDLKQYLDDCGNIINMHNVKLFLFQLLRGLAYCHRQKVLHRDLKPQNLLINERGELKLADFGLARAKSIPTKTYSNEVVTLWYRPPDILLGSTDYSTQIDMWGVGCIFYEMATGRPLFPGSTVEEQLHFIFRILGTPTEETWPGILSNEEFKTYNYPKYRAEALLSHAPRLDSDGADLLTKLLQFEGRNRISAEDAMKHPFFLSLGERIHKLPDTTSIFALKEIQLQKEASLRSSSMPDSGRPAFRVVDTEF

Q: Which results are given for `CCOCCn1cc(C(=O)Nc2ccc(-n3nc(-c4cccnc4)cc3C(F)(F)F)cn2)ccc1=O` [BI 1935]?
A: Ki [1]: 6.28 µM; residual activity [2]: 100%; residual activity [3]: 98%; inhibition [4]: 8.63%; residual activity [5]: 100%; residual activity [6]: 100%; residual activity [7]: 100%; residual activity [8]: 61%; residual activity [9]: 88%; residual activity [10]: 87%; residual activity [11]: 83%; residual activity [12]: 103%; residual activity [13]: 74%; residual activity [14]: 81%; residual activity [15]: 100%; inhibition [16]: -4.17%; residual activity [17]: 100%; residual activity [18]: 100%; residual activity [19]: 77%; residual activity [20]: 100%; residual activity [21]: 103%; residual activity [22]: 94%; residual activity [23]: 90%; residual activity [24]: 91%; residual activity [25]: 100%; residual activity [26]: 100%; residual activity [27]: 117%; residual activity [28]: 89%; residual activity [29]: 100%; residual activity [30]: 69%; residual activity [31]: 98%; residual activity [32]: 100%; residual activity [33]: 100%; activity at 10 µM [34]: 27%; residual activity [35]: 100%; residual activity [36]: 100%; residual activity [37]: 100%; inhibition [38]: 82.1%; residual activity [39]: 98%; residual activity [40]: 84%; residual activity [41]: 70%; residual activity [42]: 100%; residual activity [43]: 100%; residual activity [44]: 100%; residual activity [45]: 99%
